{"source": "patent US20130230609A1", "about": "“ANTIMICROBIAL/PRESERVATIVE COMPOSITIONS COMPRISING BOTANICALS” (priority 2012, published 2013)", "origin": "cited, not measured here", "data": [{"substance": "zinc glycerate", "values": [{"measurement": "water solubility (in words)", "result": "moderately water soluble"}]}, {"substance": "zinc picolinate", "values": [{"measurement": "water solubility (in words)", "result": "moderately water soluble"}]}]}
